Results published in PubChem BioAssay (NCI).
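Values below derive from 48-hour exposures of cells grown in 96-well plates, with endpoints linearly interpolated between the two concentrations bracketing the appropriate inhibition level. TGI: concentration producing complete growth inhibition.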

How the values were obtained:
Assay in all cases: inhibition of tumour cell growth, NCI panel, 48 h
SR leukemia = system: SR leukemia
SNB-75 CNS = system: SNB-75 CNS
UACC-257 melanoma = system: UACC-257 melanoma
CCRF-CEM leukemia = system: CCRF-CEM leukemia
HOP-92 NSCLC = system: HOP-92 NSCLC
U251 CNS = system: U251 CNS
UACC-62 melanoma = system: UACC-62 melanoma
PC-3 prostate = system: PC-3 prostate
OVCAR-3 ovarian = system: OVCAR-3 ovarian
HL-60(TB) leukemia = system: HL-60(TB) leukemia
HT29 colon = system: HT29 colon
UO-31 renal = system: UO-31 renal
CAKI-1 renal = system: CAKI-1 renal
HOP-62 NSCLC = system: HOP-62 NSCLC
MDA-N = system: MDA-N
HCT-116 colon = system: HCT-116 colon
IGROV1 ovarian = system: IGROV1 ovarian
SK-MEL-28 melanoma = system: SK-MEL-28 melanoma
A498 renal = system: A498 renal
DU-145 prostate = system: DU-145 prostate

Row | Structure (SMILES) | TGI (SR leukemia) [µM] | TGI (SNB-75 CNS) [µM] | TGI (UACC-257 melanoma) [µM] | TGI (CCRF-CEM leukemia) [µM] | TGI (HOP-92 NSCLC) [µM] | TGI (U251 CNS) [µM] | TGI (UACC-62 melanoma) [µM] | TGI (PC-3 prostate) [µM] | TGI (OVCAR-3 ovarian) [µM] | TGI (HL-60(TB) leukemia) [µM] | TGI (HT29 colon) [µM] | TGI (UO-31 renal) [µM] | TGI (CAKI-1 renal) [µM] | TGI (HOP-62 NSCLC) [µM] | TGI (MDA-N) [µM] | TGI (HCT-116 colon) [µM] | TGI (IGROV1 ovarian) [µM] | TGI (SK-MEL-28 melanoma) [µM] | TGI (A498 renal) [µM] | TGI (DU-145 prostate) [µM]
1 | COc1ccc(-c2nc(-c3cnccn3)n(C3OC(CO)C(O)C3O)n2)cc1 (stereo not drawn) | > 10 | > 10 | > 10 | > 10 | > 10 | > 10 | > 10 | > 10 | > 10 | > 10 | > 10 | > 10 |  |  |  |  |  |  |  | 
2 | CO/C(=N\N=C\c1ccc(Cl)c(Cl)c1)c1ccncc1 | > 10 | > 10 |  | > 10 | > 10 | > 10 |  | > 10 | > 10 | > 10 |  | > 10 | > 10 | > 10 | > 10 | > 10 | > 10 | > 10 |  | 
3 | CC(Cn1c2c(c3cc(O)ccc31)CCc1ccc(O)cc1-2)N(C)C (stereo not drawn) | > 100 | 51.2 | 44.6 | > 100 |  | > 100 | 35.9 | 27.6 | 30.1 | > 100 | 35.8 | 28.3 | 52.8 | 31 | 48.1 | > 100 | 29.1 |  | 53.7 | 
4 | CCOC(=O)c1nc2ccc(C(F)(F)F)cc2nc1Nc1ccc(OC)cc1 | > 100 | > 100 | > 100 | > 100 | 49.2 | > 100 | > 100 | > 100 | > 100 | > 100 | > 100 | > 100 |  | 63.5 |  | > 100 | > 100 | > 100 | > 100 | > 100
5 | O=[N+]([O-])c1cccc(Nc2nc(Cl)nc(Cl)n2)c1 | > 100 | > 100 | > 100 | > 100 |  | > 100 | > 100 |  | > 100 |  | > 100 | > 100 | > 100 | > 100 |  | > 100 |  | > 100 |  | 
6 | COc1ccc(/C=C\c2cc(OC)c(OC)c(OC)c2)cc1 | 78.7 | 0.000932 |  | > 100 |  | 1.25 | > 100 |  | 0.000152 |  | 13.6 | 8.66 | 43.4 | > 100 |  | > 100 | > 100 |  | 13.2 | 
7 | COc1ccc2[nH]c3c(c2c1)[C@H]1CCC(C(C)(C)C)C[C@H]1[C@H]1C(=O)N(c2ccccc2)C(=O)[C@@H]31 (stereo partly drawn) |  | 14.6 | > 80.6 | > 52 | 21 | 19.2 | > 100 |  | > 58.9 | > 100 | > 100 | 97.5 | > 36.6 | 38.3 |  | > 100 | > 100 | > 100 | 44.1 | 
8 | CCCCCCCCC(O)c1ccc(/C=C\C(O)CCCC(=O)O)s1 (stereo not drawn) | > 100 | > 100 | > 100 | > 100 | > 100 | > 100 | > 100 |  | > 100 | > 100 | > 100 | > 100 |  |  |  | > 100 | > 100 | > 100 |  | 
9 | COC(=O)/C=C(\C)CCC1SC1(C)C (stereo not drawn) |  | > 100 | > 100 | > 100 |  | > 100 | > 100 |  |  | > 100 | > 100 | > 100 | > 100 | > 100 |  | > 100 | > 100 | > 100 | > 100 | 
10 | CCOC(=O)CCC(NC(=O)c1ccc(NC(OC)c2nc3cc(C(F)(F)F)ccc3nc2-c2ccccc2)cc1)C(=O)OCC (stereo not drawn) | > 100 | 36.5 | 32.2 | > 21.7 | 30.3 | 29.8 | 34.2 |  | 35.8 |  | 22.1 | 26.8 | 31.1 | 31.2 |  | 9.35 | 33.3 | 31.6 | 34.5 | 
11 | CCOC(=O)C1=C(OC(OCC)C(CC)[Se]c2ccccc2)CCC1 (stereo not drawn) | 83.4 | 69.8 | 77.4 | 36.2 | 45.8 | 25.3 | 81.1 |  | 69.3 | 39.1 | 58.1 | 96.2 | > 100 | > 100 |  | > 100 | > 100 | 92.8 | > 100 | 
12 | Cc1cc(NS(=O)(=O)c2ccc(N=[N+]([O-])c3ccc(S(=O)(=O)Nc4cc(C)on4)cc3)cc2)no1 | > 100 | > 100 | > 100 | > 100 | > 100 | > 100 | > 100 | > 100 | > 100 | > 100 | > 100 | > 100 | > 100 | > 100 |  | > 100 | > 100 |  | > 100 | > 100
13 | COc1ccc(-c2nc(Nc3ccccc3)sc2Cc2sc(Nc3ccccc3)nc2-c2ccc(OC)cc2)cc1 | > 100 | > 100 | > 100 | > 100 |  | > 100 | > 100 |  | > 100 | 52 | > 100 | > 100 | > 100 | > 100 | > 100 | > 100 | > 100 | > 100 | > 100 | > 100
14 | C=C1C(=O)O[C@H]2C1C[C@H](O)[C@@]1(C)OC1CC[C@@]1(C)O[C@H]21 (stereo partly drawn) | 40.5 | > 100 | 37.8 | 8.68 | 36.5 | > 100 | 28.2 | 39.1 |  |  | > 100 | 31 | 33.5 | 73.3 |  | 30.2 | 31 | 35.9 |  | > 100
15 | C=C1C2=C(CCCC2)C(=O)OC12CCCCC2 | > 100 | > 100 | > 100 | > 100 | 77.9 | > 100 | > 100 |  | > 100 | > 100 | > 100 | > 100 |  | > 100 |  | > 100 | > 100 | > 100 |  | 
16 | CN1CCc2ccccc2C(C(=O)c2ccc3c(c2)OCO3)C1=O (stereo not drawn) |  | > 100 | > 100 | > 100 | > 100 | > 100 | > 100 |  | > 100 | > 100 | > 100 | > 100 | > 100 | > 100 |  | > 100 | > 100 | > 100 | > 100 | 
17 | COc1cc([C@@H]2c3cc4c(cc3[C@@H](Nc3ccc(Cl)cc3C(=O)c3ccccc3)[C@H]3COC(=O)[C@H]23)OCO4)cc(OC)c1OC |  |  | > 100 | > 100 |  | 0.576 | > 100 |  | > 100 | 1.09 |  | > 100 | > 100 | > 100 | > 93.6 | > 100 | 7.6 | 78.4 | 5.27 | > 100
18 | COC(=O)[C@@](NC(=O)OCc1ccccc1)([C@H](C)O)C(F)(F)F | > 100 | > 100 | > 100 | > 100 | > 100 | > 100 | > 100 | > 100 | > 100 | > 100 | > 100 | > 100 | > 100 | > 100 |  | > 100 | > 100 | > 100 | > 100 | > 100
19 | Cc1ccc(S(=O)(=O)N2CCSCCSCCSCCN(S(=O)(=O)c3ccc(C)cc3)CC2)cc1 |  | > 100 | > 100 |  | > 100 | > 100 | > 100 |  | > 100 | > 100 | > 100 | > 100 |  | > 100 | > 100 | > 100 | > 100 | > 100 | > 100 | > 100
20 | O=C(/C=C/c1ccccc1O)c1ccccc1Cl | 76.5 | 68.8 | > 100 | 88.5 | > 100 | > 100 | > 100 |  | > 100 | 63.8 | > 100 | > 100 | > 100 | > 100 |  | > 100 | > 100 | > 100 | > 100 | 
21 | Cc1ccc(-c2cc(-c3ccccc3)c(C#N)c(=O)[nH]2)cc1 | > 100 | > 100 | > 100 | > 100 | > 100 | > 100 | > 100 |  | > 100 | > 100 | > 100 | > 100 |  | > 100 |  | > 100 | > 100 | > 100 | > 100 | 
22 | COc1ccc(COCC[C@H](C)OC2OC(CO)C(O)C(O)C2O)cc1 (stereo partly drawn) | > 100 | > 100 | > 100 | > 100 | > 100 | > 100 | > 100 | > 100 | > 100 | > 100 | > 100 | > 100 | > 100 | > 100 |  | > 100 | > 100 | > 100 | > 100 | > 100
23 | Cc1cc(O)c(/C=N/C(=S)Nc2ccc(S(N)(=O)=O)cc2)c(=O)o1 |  | > 100 | > 100 |  | > 100 | > 100 | > 100 |  | > 100 | > 100 | > 100 | > 100 | > 100 | > 100 | > 100 | > 100 | > 100 | > 100 | > 100 | > 100
24 | O=c1c(Sc2c(SCSc3cnc4ccccc4c3Sc3c[nH]c4ccccc4c3=O)cnc3ccccc23)c[nH]c2ccccc12 | 25 | > 100 | > 100 | > 100 | > 100 | > 100 | > 100 |  | > 100 | > 100 | > 100 | > 100 | > 100 | > 100 | > 100 | > 100 | > 100 | > 100 |  | > 100
25 | COc1ccc(C2Cc3cc(OC)c(OC)c(OC)c3C2)cc1 (stereo not drawn) |  | 84.8 | > 100 | > 100 |  | > 100 | > 100 |  | > 100 |  | 79.6 | 64.8 | > 100 | > 100 |  | > 100 | > 100 | > 100 | > 100 | 
26 | CC(C)(O)c1cc2c(cc1C(C)(C)O)-c1ccccc1-2 | > 100 | > 100 | > 100 | > 100 | > 100 | > 100 | > 100 | > 100 | > 100 | > 100 |  |  | > 100 |  |  |  | > 100 | > 100 | > 100 | > 100
27 | CC(Oc1ccc(Cl)cc1Cl)C(=O)NN1C(=O)CC(=O)N(c2ccccc2)C1=S (stereo not drawn) | 22.4 | > 100 | > 100 |  | 84 | > 100 | > 100 | > 100 | > 100 | 5.73 | > 100 | > 100 | > 100 | > 100 |  | > 100 | > 100 | > 100 | 95.1 | > 100
28 | CCCCOC/N=C(/N)NC#N | 63.1 | > 100 | > 100 |  | > 100 | > 100 | > 100 |  | > 100 | > 100 | > 100 | > 100 | > 100 | > 100 |  | > 100 | > 100 | > 100 | > 100 | 
